Consider five molecules from ChEMBL document CHEMBL2146468, “Thrombin inhibitors from the freshwater cyanobacterium Anabaena compacta” (J Nat Prod, 2012).

One experiment concerns the target Plasminogen (Homo sapiens, UniProt P00747). Description: Inhibition of plasmin.
In another experiment the target is Cathepsin B (Homo sapiens, UniProt P07858). Description: Inhibition of cathepsin B using Z-Phe-Arg-MCA as substrate incubated for 10 mins prior to substrate addition measured after 30 mins by fluorimetric analysis.
Experiment [1] addresses Prothrombin (Homo sapiens, UniProt P00734). Briefly: Inhibition of thrombin.
Experiment [2] concerns the target Prothrombin (Bos taurus, UniProt P00735). Description: Inhibition of bovine thrombin using Bz-Phe-Val-Arg-pNA as substrate incubated for 5 mins prior to substrate addition measured after 30 mins by spectrophotometric analysis.
Experiment [3] can be described thus: Inhibition of trypsin.
Experiment [4] is described as follows: Selectivity ratio of EC50 for bovine thrombin to EC50 for cathepsin B.

Chain of Plasminogen (P00747 97-580 limits assumed): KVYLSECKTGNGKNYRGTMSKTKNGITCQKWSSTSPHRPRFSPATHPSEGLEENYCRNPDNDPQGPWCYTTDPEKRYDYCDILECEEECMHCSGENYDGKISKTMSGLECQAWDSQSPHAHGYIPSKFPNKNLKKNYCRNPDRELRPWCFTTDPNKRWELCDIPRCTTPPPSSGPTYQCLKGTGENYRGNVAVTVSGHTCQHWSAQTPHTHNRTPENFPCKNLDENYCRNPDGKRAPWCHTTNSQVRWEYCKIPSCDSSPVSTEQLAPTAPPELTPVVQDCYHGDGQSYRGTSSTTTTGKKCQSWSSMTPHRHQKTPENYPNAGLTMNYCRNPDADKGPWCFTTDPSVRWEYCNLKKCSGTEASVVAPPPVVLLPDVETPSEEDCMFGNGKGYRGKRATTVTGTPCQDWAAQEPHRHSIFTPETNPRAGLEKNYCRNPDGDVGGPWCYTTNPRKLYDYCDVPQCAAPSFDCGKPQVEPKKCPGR
Chain of Plasminogen (P00747 581-810 limits assumed): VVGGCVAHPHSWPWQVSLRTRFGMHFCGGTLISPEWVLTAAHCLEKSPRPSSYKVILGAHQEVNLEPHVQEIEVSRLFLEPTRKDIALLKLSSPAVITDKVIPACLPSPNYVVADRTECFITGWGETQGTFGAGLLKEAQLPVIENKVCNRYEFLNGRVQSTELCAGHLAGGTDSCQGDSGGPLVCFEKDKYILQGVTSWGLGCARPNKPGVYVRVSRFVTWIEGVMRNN

Regarding `C[C@H]1C[C@@H](C(=O)N[C@H](CO)CCCN=C(N)N)N(C(=O)[C@@H](CCc2ccc(O)cc2)NC(=O)[C@H](O)Cc2ccc(O)cc2)C1` [SPUMIGIN A], the EC50 – broadly, the concentration at which the effect is half-maximal – on Plasminogen turned out to be 4.9 µM; at Cathepsin B it was 0.2 µM; at Prothrombin [1] it was 7.5 µM; on Prothrombin [2], 2.1 µM.

In turn, `C[C@H]1C[C@@H](C(=O)N[C@H](CO)CCCNC(=N)N)N(C(=O)[C@@H](CCc2ccc(O)cc2)NC(=O)[C@H](O)Cc2ccc(O)cc2)C1` [SPUMIGIN A] came in with a concentration for a half-maximal effect (EC50) in experiment [3] of 26.3 µM. Moreover, the Ratio EC50 in experiment [4] came out at 10.

On to `C[C@H]1C[C@@H](C(=O)N[C@@H](CCCNC(=N)N)C(=O)O)N(C(=O)[C@@H](CCc2ccc(O)cc2)NC(=O)[C@H](O)Cc2ccc(O)cc2)C1` [SPUMIGIN B1], for which the 50% effective concentration (EC50) in experiment [3] turned out to be 33.1 µM.

In experiment [3], `C[C@H]1C[C@@H](C(=O)NC(C=O)CCCNC(=N)N)N(C(=O)[C@@H](CCc2ccc(O)cc2)NC(=O)[C@H](O)Cc2ccc(O)cc2)C1` (stereo partly specified) [SPUMIGIN E] showed a 50% effective concentration (EC50) of 0.3 µM.

In the case of `C[C@H]1C[C@@H](C(=O)N(C)[C@H](CCCCN)C(=O)O)N(C(=O)[C@@H](CCc2ccc(O)cc2)NC(=O)[C@H](O)Cc2ccc(O)cc2)C1` [SPUMIGIN J], the EC50 at Cathepsin B came to 0.7 µM; on Prothrombin [2], 4.9 µM. For the same molecule, the Ratio EC50 in experiment [4] was determined as 7.
